Assay results from patent US6949507B2, “Use of agents which bind G proteins for treating septic shock” (Dana-Farber Cancer Institute, Inc., priority 1997, dated 2005).
“Also recorded” adds a separate entry of the source.

What was measured:
[1] = system: human monocytes; assay: Cell viability by trypan blue uptake; assay type: cell-based; settings: after 36 hours of continuous mastoparan incubation
Method: (§1) In order to determine if the effect of mastoparan on LPS-induced cytokine production was due to a direct effect on monocytes, a highly enriched monocyte population was tested for the effect of LPS and mastoparan on cytokine production from these cells. Freshly isolated human monocytes were treated with mastoparan and LPS, after which IL-6 and TFN cytokine levels were measured in the tissue culture supernatants of the cells (FIG. 3A). […] When mastoparan was used in conjunction with LPS, cytokine production was diminished. […] Mastoparan had little effect on cytokine production from PMA stimulated cells (FIG. 3B), indicating the specificity of mastoparan action, and lack of mastoparan toxicity. Mastoparan had no effect on cell viability as measured by trypan blue uptake even after 36 hours of continuous mastoparan incubation.

[2] = system: human monocytes; assay: LPS-induced IL-6 and TNF production from freshly isolated human monocytes (ELISA); assay type: cell-based
Text: (§2) Freshly isolated human peripheral blood mononuclear cells (PBMC) and monocytes were obtained from leukopaks (discarded leukocyte from platelet donations). The cells were fractionated on FICOLL-HYPAQUE™ gradients, washed, treated with tris-buffered NH4Cl to eliminate RBCs and washed to obtain PMBCs. Monocytes were obtained by depleting the PBMCs of T cells and NK cells by negative selection asking standard techniques. T cells and NK cells were removed by treatment with anti-CD3 and anti-CD2 monoclonal antibodies followed by goat anti-mouse Ig conjugated magnetic beads at a 10:1 bead:cell ratio. The monocyte preparations were at least 80-85% monocytes, as determined by anti-CD14 staining and forward and slide light scatter analysis using a FACScan (Becton-Dickenson, Elmhurst, Ill.). Less than 2% of the contaminating cells in the monocyte preparation were T cells and no NK cells could be detected. Monocytes were maintained in Ham's F-12 10% FCS, L-Glutamine and penicillin/streptomyocin at 37° C. in 5% CO2.
(§3) Freshly isolated human monocytes, human PBMC and U373-CD14 cells were incubated with 10 ng/ml LPS (E coli 0111:B4, Sigma, St. Louis, Mo.), 100 ng/ml PMA or were untreated in supplemented RPMI [10% FCS; 2 mM L-glutamine and penicillin/streptomycin] with or without various concentrations of mastoparan for 18 hours at 37° C. in 24 well tissue culture dishes. IL-6 and TNF-α levels were determined by ELISA (Endogen Inc., Boston, Mass.) of supernatants harvested at 4 hours (for TNF-α) and at 18 hours (for IL-6) after LPS stimulation.
as §1

[3] = system: human PBMCs; assay: LPS-induced IL-6 production from human PBMCs (ELISA); assay type: cell-based; settings: for inhibition of LPS-induced IL-6 production: LPS stimulated human PBMCs, 10 ng/ml LPS, IL-6 at 18 hours
Text: as §2, §3
Freshly isolated PBMCs were treated with LPS and/or peptides (mastoparan or the MAS-17 control peptide) and IL-6 levels were measured in the tissue culture supernatants of the cells (FIG. 2). PBMCs produced IL-6 in response to LPS, while neither mastoparan nor MAS-17 stimulated IL-6 production from the PBMCs.

[4] = system: Erk kinases; assay: Erk 1 and 2 MAP kinase activation in human monocytes (immunoblotting); assay type: cell-based
Method: (§4) For detection of p38, phosphorylated p38 and phosphorylated Erk kinases in monocyte lysates, monocytes were subjected to various treatments and lysed in boiling reducing Laemmli sample buffer. The lysates were subjected to electrophoresis through a 10% SDS PAGE gel and were then transferred to nitrocellulose (NC). After washing twice with TBS-Twwen 20(0.1%) the NC was placed in a solution of Ponceau S dye to ensure equal loading and left in blocking buffer [1×TBS; […]; 5% milk] for 1 hour. After blocking and washing, the NC was incubated with anti-p38 N+C terminus (Santa Cruz Biotechnology Inc., Santa Cruz, Calif.) for 2-3 hours or with anti-phosphorylated p38 and Erk antibodies (New England Biolabs, Inc., Beverly, Mass.) for 18 hours. Membranes were washed three times in TBS-Tween 20 and were incubated for 30 minutes with horseradish peroxidase conjugated donkey-α-rabbit antibody in blocking buffer (Amersham Corp., Arlington Heights, Ill.). Membranes were washed an additional six times [3×TBS-Tween-20; 3×TBS], and were developed by exposure to ECL chemicals (Amersham corp., Arlington Heights, Ill.) and visualized by exposure to film.
The lack of substantial LPS-induced Erk kinase phosphorylation in freshly isolated monocytes is consistent with results obtained with other non-transformed human cells (Nick et al., J. Immunol., 156: 4867-4875, 1996). […]

[5] = system: human monocytes; assay: PMA-induced cytokine production from human monocytes; assay type: cell-based; settings: 100 ng/ml PMA
Method: as §3, §1

[6] = system: p38 MAP kinase; assay: LPS-induced p38 MAP kinase phosphorylation / nuclear translocation (immunoblotting); assay type: cell-based, human
Method: as §4
For detection of p38 in nuclear extracts, cells after a variety of treatments were subject to lysis and nuclear extraction as described in Lerder et al., J. Immunol. 152:77-86 (1994). The nuclear extracts were subjected to protein quantitation by Micro BCA assay (Pierce, Rockford, Ill.) using a BSA standard. The details of the blotting procedure were the same as above except that […] of extract was used.
Because mastoparan had profound effects on cytokine production and p38 MAP kinase is involved,in LPS induced-signaling, the effect of mastoparan on MAP kinase activation was evaluated. For full activation, p38 MAP kinase requires phosphorylation on both threonine and tyrosine residues (Raingeaud et al., J. Biol. Chem., 270: 7420-7426, 1995). Detection of dual-phosphorylated p38 MAP kinase by monoclonal antibodies specific for the dual-phosphorylated form of p38 was used as a measure of p38 activation. […]

[7] = system: LPS-induced lethal endotoxic shock; assay: LPS-induced lethal endotoxic shock in rats; assay type: in vivo, Wistar rats
Method: Wistar rats (200 g) were obtained from Charles River Laboratories. Rats were treated with 3 mg/kg mastoparan by intravenous injection in the tail vein, immediately followed by 15 mg/kg lead acetate and 5 μg/kg LPS 0111:B4 intravenously. Mortality was assessed up to 96 hours following LPS treatment. Mortality frequency was compared by Fisher exact test and statistical analysis was performed using Yates corrected Chi square test.
To determine the effect of mastoparan in vivo, the effect of mastoparan on LPS-induced lethal endotoxic shock in rats was assessed.

[8] = system: U373-CD14 cells; assay: LPS-induced IL-6 production from U373-CD14 transfectants; assay type: cell-based
Method: U373 cell CD14 transfectants (U373-CD14) were maintained in EMEM supplemented with 10% FCS, L-Glutamine and penicillin/streptomyocin at 37° C. in 5% CO2.
as §3
In addition, the effect of mastoparan on LSP-induced cytokine production from an LPS responsive, CD14 transfected cell line was determined. LPS treatment of U373-CD14 transfectants induced an LPS dose-dependent production of IL-6 (FIG. 4). […] IL-6 production induced by 10 ng/ml LPS was also ablated by treatment of the cells with mastoparan, while at 100 ng/ml of LPS, mastoparan reduced IL-6 levels by approximately one third. At high concentrations of LPS (1 μg/ml) the IL-6 responses of these cells were not inhibited by treatment with the anti-CD14 monoclonal antibody. […] At LPS concentrations of 1 μg/ml, mastoparan was ineffective at reducing cytokine responses from these cells. Thus, CD14-independent LPS signals were not inhibited by mastoparan.

[9] = LPS-stimulated, various concentrations of mastoparan (FIG. 3A)
[10] = 3 mg/kg mastoparan i.v. + lead acetate + 5 μg/kg LPS, dead/total

mastoparan
cell viability as measured by trypan blue uptake [1]: no effect | inhibition of IL-6 production in human monocytes [2, 9]: dose-dependent inhibition | inhibition of TNF-α production in human monocytes [2, 9]: dose-dependent inhibition | LPS-induced cytokine production ([2]; human monocytes, 13.34 μM mastoparan): totally ablated | IL-6 production induced by mastoparan alone ([2]; human monocytes, without LPS): induced neither | TNF production induced by mastoparan alone ([2]; human monocytes, without LPS): induced neither | reduction of IL-6 production in monocytes stimulated with LPS ([2]; mastoparan as low as 1.67 μM): dramatic reductions | reduction of TNF production in monocytes stimulated with LPS ([2]; mastoparan as low as 1.67 μM): dramatic reductions | LPS-induced cytokine production from human monocytes ([2]; mastoparan in conjunction with LPS, concentration not given): inhibition; also recorded: diminished | inhibition of LPS-induced IL-6 production [3]: potent inhibitor | inhibition of LPS-induced IL-6 production ([3]; listed as mastoparan): inhibits; also recorded: dose-dependent | LPS-induced IL-6 production ([3]; human PBMCs, 13.3 μM mastoparan): totally ablated | IL-6 production stimulated by peptide alone ([3]; human PBMCs, peptide without LPS): neither | Erk kinase activation induced by LPS [4]: specific inhibition; also recorded: completely inhibited | Erk kinase activation induced by PMA [4]: minimal effects | cytokine production from PMA stimulated cells [5]: little effect | LPS-induced p38 MAP kinase activity ([6]; FIG. 5B): reduces | LPS-induced phosphorylation of p38 MAP kinase ([6]; monocytes and PBMC): inhibition; also recorded: reduced | LPS-induced nuclear translocation of p38 ([6]; nuclear extracts): inhibited | Mortality Total (%) ([7]; 3 mg/kg mastoparan i.v. + lead acetate + 5 μg/kg LPS): 44.4% | Mortality 14 hours [7, 10]: 7/18 | Mortality 24 hours [7, 10]: 8/18 | protection from LPS induced mortality ([7]; 3 mg/kg mastoparan i.v., 15 mg/kg lead acetate and 5 μg/kg LPS i.v., p<0.05 at 14 and 24 hours): significantly protect | mortality at 96 hours relative to the 24 hour point ([7]; experiment continued for 96 hours): unchanged | toxic effects when used alone in the model system ([7]; mastoparan alone, data not shown): did not have any toxic effects | IL-6 production induced by LPS ([8]; U373-CD14 cells, 10 ng/ml LPS): ablated | reduction of IL-6 levels ([8]; U373-CD14 cells, 100 ng/ml LPS): approximately one third | IL-6 / cytokine responses at high LPS (CD14-independent) ([8]; U373-CD14 cells, 1 μg/ml LPS): ineffective | CD14-dependent LPS induced signal transduction ([8]; U373-CD14 transfected cells (FIG. 4)): inhibits
